Experiment: Maximum absorption wavelength (λmax) of the illustrative compounds in solvent
Assay type: physicochemical
Details: EtOAc

Going from CCCCC(CC)C(=O)Oc1ccc(OC(=O)C(CC)CCCC)c2c1SC(=C(C#N)C(=O)C(C)(C)C)S2 (stereo not drawn) [S-01] to CCCCC(CC)C(=O)Oc1ccc(OC(=O)C(CC)CCCC)c2c1SC(=C(C#N)C(N)=O)S2 (stereo not drawn) [S-20], the “maximum absorption wavelength (λmax)” value falls from 375 nm to 357 nm.

First: CCCCC(CC)COc1ccc(OCC(CC)CCCC)c2c1SC(=C(C#N)C(=O)C(C)(C)C)S2 (stereo not drawn) [S-06]
Second: CCCCC(CC)COc1ccc(OCC(CC)CCCC)c2c1SC(=C(C#N)C#N)S2 (stereo not drawn) [S-26]
The “maximum absorption wavelength (λmax)” value of the first is higher: 382 nm for the first, 369 nm for the second.

Compared with CCCCC(CC)C(=O)Oc1ccc(OC(=O)C(CC)CCCC)c2c1SC(=C(C#N)C#N)S2 (stereo not drawn) [S-17], CC(CCOc1ccc(OCCC(C)CC(C)(C)C)c2c1SC(=C(C#N)C#N)S2)CC(C)(C)C (stereo not drawn) [S-27] is higher in “maximum absorption wavelength (λmax)” value: 363 nm for the first, 369 nm for the second.

CC(CCOc1ccc(OCCC(C)CC(C)(C)C)c2c1SC(=C(C#N)C(=O)C(C)(C)C)S2)CC(C)(C)C (stereo not drawn) [S-28] and CC(C)(C)C(=O)C(C#N)=C1Sc2c(OCCO)ccc(OCCO)c2S1 [S-29] are the same in “maximum absorption wavelength (λmax)” value: 382 nm for the first, 382 nm for the second.

Same assay, conditions: MeOH

For N#CC(C#N)=C1Sc2c(OCCO)ccc(OCCO)c2S1 [S-30], the “maximum absorption wavelength (λmax)” value was 369 nm.

Source: patent US20110059033A1, “ULTRAVIOLET ABSORBING COMPOSITION” (FUJIFILM Corporation, priority 2009, published 2011)
